This note sets out measurements from patent US6485941B1, “Inhibition of the carboxyltransferase component of acetyl-CoA carboxylase, and the use of such inhibition in anti-cancer and anti-lipogenic therapies” (Board of Supervisors of Louisiana State University and …, priority 2002, dated 2002).

For experiment [1], the target named is T1, carboxyltransferase component of E. coli acetyl-CoA carboxylase (Escherichia coli, UniProt P0A9Q5+P0ABD5).
T1 construct: made in house; host or cells: E. coli overexpression strain (Blanchard et al. 1998; G. Waldrop, LSU)
T1 sequence (P0ABD5 1-319): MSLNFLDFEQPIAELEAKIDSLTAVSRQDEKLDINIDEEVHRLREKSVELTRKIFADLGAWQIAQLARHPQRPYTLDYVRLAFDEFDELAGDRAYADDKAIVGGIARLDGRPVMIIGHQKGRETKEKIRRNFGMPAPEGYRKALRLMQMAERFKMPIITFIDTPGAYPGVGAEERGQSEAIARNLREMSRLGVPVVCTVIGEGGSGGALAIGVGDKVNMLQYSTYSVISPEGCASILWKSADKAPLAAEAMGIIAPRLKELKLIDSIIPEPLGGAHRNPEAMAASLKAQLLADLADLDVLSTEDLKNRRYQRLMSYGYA
T1 sequence (P0A9Q5 1-304): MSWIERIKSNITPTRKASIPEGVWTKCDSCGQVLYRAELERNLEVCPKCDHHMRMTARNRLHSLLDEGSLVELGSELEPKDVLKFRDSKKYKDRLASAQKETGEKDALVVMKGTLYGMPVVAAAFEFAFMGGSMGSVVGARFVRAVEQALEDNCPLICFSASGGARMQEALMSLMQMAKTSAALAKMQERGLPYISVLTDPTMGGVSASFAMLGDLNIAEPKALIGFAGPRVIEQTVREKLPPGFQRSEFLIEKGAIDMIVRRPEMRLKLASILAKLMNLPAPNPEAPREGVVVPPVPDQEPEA
Description: Carboxyltransferase inhibition, assayed in the reverse direction with coupled spectrophotometric detection. Type of experiment: biochemical. The method, then:
Carboxyltransferase was purified from a strain of E. coli that overexpresses the genes encoding the α and β subunits of the enzyme. C. Blanchard et al., J. Biol. Chem. 273, 19140-19145 (1998). (E. coli strain available on request from G. Waldrop, Department of Biological Sciences, Louisiana State University, Baton Rouge, La.) The published procedure was modified slightly. Bacteria were grown to saturation at 37° C. in 1 L of LB medium in 2 L flasks, and were then induced with 1 g of lactose and incubated without shaking at 25° C. for 24 h. The concentration of carboxyltransferase was determined by the method of M. Bradford, Anal. Biochem. 72, 248-254 (1976) using bovine serum albumin as a standard.
(§1) Carboxyltransferase was assayed in the reverse direction: the production of acetyl-CoA was detected by using the coupling enzymes malate dehydrogenase and citrate synthase, and the reduction of NAD^+ was measured spectrophotometrically by the method of C. Blanchard et al., J. Biol. Chem. 273, 19140-19145 (1998); and R. Guchhait et al., Methods Enzymol. 35, 32-37 (1975).
In Equations [1] and [2], v is the initial velocity, Vm is the maximal velocity, A is the substrate concentration, I is the concentration of inhibitor, Km is the Michaelis constant, Kis is the slope inhibition constant, and Kii is the intercept inhibition constant.
v=VmA/(Km(1+I/Kis)+A(1+I/Kii))
The activity of carboxyltransferase was measured in the reverse direction using malonyl-CoA and biocytin as substrates.

In experiment [2] the target is T2, murine acetyl-CoA carboxylase (Mus musculus, UniProt Q5SWU9).
T2 construct: endogenous in cells; host or cells: murine 3T3-L1 pre-adipocytes (cytosolic extract)
Description: Acetyl-CoA carboxylase activity in cell-free extracts of pre-adipocytes, compound added to extract. The experiment is classed as biochemical. On the procedure: (§2) The above procedure was modified to prepare extracts for enzymatic analysis. The non-denaturing buffer in that case contained 150 mM KCl instead of NaCl, and there was no Triton X-100, Nonidet P-40, nor any protease or phosphatase inhibitors in the buffer. The cell monolayers were scraped into this buffer, and were homogenized with 16 strokes in a Dounce homogenizer. The homogenates were centrifuged at 10,000 g for 5 minutes, and the supernatants were saved as cytosolic extract, quantitated, and used to assay acetyl-CoA carboxylase activity.
The activity of acetyl-CoA carboxylase from 3T3-L1 cell lysates was determined in a fixed-time assay using HPLC. HPLC is not normally used in this field, because cell lysates are mixtures of such a large number of different components; it would be more conventional to use an assay employing radioactivity. […] This assay will be useful in monitoring the progress and reaction of patients who are administered treatment in accordance with this invention.
(§3) Assays were performed by measuring the loss of acetyl-CoA, or the production of malonyl-CoA, at 5 minute intervals for 20 minutes, using reverse-phase HPLC. […] Rates were calculated by linear regression analysis of malonyl-CoA concentration as a function of time. […] Following termination of the reaction, the samples were centrifuged (3 min, 10,000 g) and then analyzed by HPLC. […]

A further experiment concerns malate dehydrogenase. Description: Coupling enzyme control (NAD+ reduction after addition of acetyl-CoA). The experiment is classed as biochemical. The following applies: 0.6 mM compound. On the procedure:
as §1
(§4) The bisubstrate analog had previously been observed not to inhibit the activity of either of these coupling enzymes at 0.6 mM, a value three times higher than the highest concentration used in the inhibition studies.

Another experiment concerns citrate synthase. The experiment is described as above. The experiment is classed as biochemical. The following applies: 0.6 mM compound. On the procedure:
as §1, §4

The next experiment concerns 3T3-L1 pre-adipocytes. Description: 3T3-L1 adipocyte differentiation (Western blot of transcription factors, Oil Red O staining). The experiment is classed as cell-based, murine. On the procedure: Murine 3T3-L1 pre-adipocytes (a kind gift from Howard Green, Harvard University, Cambridge, Mass.) were plated and grown to 2 days post-confluence in DMEM supplemented with 10% bovine serum. Medium was changed every 48 hours. Cells were induced to differentiate into adipocytes by changing the medium to DMEM supplemented with 10% fetal bovine serum (FBS), 0.5 mM 3-isobutyl-1-methylxanthine (MIX) (Sigma), 1 μM dexamethasone (DEX) (Sigma), and 1.7 μM insulin (Sigma). After 48 hours this medium was replaced with DMEM supplemented with 10% FBS, and the cells were maintained in this medium until they were used in experiments. Compound 2 was dissolved in DMSO and added to the cell culture media at a 1:1000 dilution for experiments. Vehicle additions were also conducted for each experiment as controls.
Monolayers of 3T3-L1 adipocytes were rinsed with phosphate-buffered saline (PBS) and then harvested in a non-denaturing buffer containing 150 mM NaCl, 10 mM Tris, pH 7.4, 1 mM EGTA, 1 mM EDTA, 1% Triton-X 100, 0.5% Nonidet P-40 detergent (Sigma), 1 μM PMSF (phenylmethylsulfonyl fluoride protease inhibitor, Sigma), 1 μM pepstatin (Sigma), 50 trypsin inhibitory milliunits of aprotinin (Sigma), 10 μM leupeptin (Sigma), and 2 mM sodium vanadate (Fisher Chemical, Fair Lawn, […]) for Western blot analysis. Samples were extracted for 30 minutes on ice and centrifuged at 10,000 g at 4° C. for 15 minutes. Supernatants containing whole cell extracts were analyzed for protein content using a BCA kit (Pierce) according to the manufacturer's instructions.
Proteins were separated in 5%, 7.5%, or 12% polyacrylamide (National Diagnostics, […].) gel containing sodium dodecyl sulfate (SDS) following the procedure of U. Laemmli, Nature 227, 680-685 (1970). Proteins were then transferred to nitrocellulose (BioRad, Atlanta, Ga.) in 25 mM Tris, 192 mM glycine, and 20% methanol. Following transfer, the membrane was blocked in 4% milk (non-fat, dried milk reconstituted in water at a 4% concentration (w/v)) for 1 hour at room temperature. Results were visualized with horseradish peroxidase (HRP)-conjugated secondary antibodies (Sigma) and enhanced chemiluminescence (Pierce).
The murine 3T3-L1 pre-adipocyte cell line was used to examine the effects of Compound 2 on adipocyte differentiation. The 3T3-L1 cell line can be induced to differentiate in culture from fibroblasts, or pre-adipocytes, into cells with the morphological and biochemical properties of adipocytes. […] For example, these cells accumulate lipids, respond to insulin, and secrete leptin. The 3T3-L1 pre-adipocytes were first grown to a confluent monolayer. At two days post-confluence, the cells were exposed to a “differentiation cocktail” (FBS, MIX, DEX, and insulin) for 48 hours, and the cells were then maintained in 10% FBS in DMEM in the presence or absence of various doses of Compound 2. A vehicle addition of DMSO was also performed as a control. Compound 2 or DMSO was added in a 1-to-1000 dilution to the cell culture medium every 24 hours. One week after treatment with the differentiation cocktail, whole cell extracts were prepared, and cells were stained with Oil Red O to assess lipid accumulation.
The differentiation of pre-adipocytes into adipocytes has been attributed, in part, to increased expression of several transcription factors, including PPARγ and STATs 1, 5A, and 5B. To observe the differentiation of pre-adipocytes into adipocytes, the expression of these transcription factors was examined by Western blot analysis (data not shown). Adipogenesis was also assessed by examining lipid accumulation, as judged by Oil Red O staining (data not shown).
Whole cell extracts were prepared one week after the induction of differentiation in the presence of 0, 1, 2, 4, 8, or 17 μM doses of Compound 2, or treatment with DMSO (vehicle), with treatments in each case repeated every 24 hours. […]

For experiment [3], the system named is breast cancer cell line MCF7. Description: MCF7 cellular proliferation (counting viable cells as a function of time). The experiment is classed as cell-based. Particulars: preliminary data; number of viable cells as a function of time. The source says:
Cancer cells also typically have high levels of fatty acid synthesis. Various inhibitors of fatty acid synthesis are currently in clinical trials for the treatment of breast cancers. Since acetyl-CoA carboxylase—not fatty acid synthase—is the rate-limiting enzyme in fat synthesis, the inhibition of acetyl-CoA carboxylase with the bisubstrate analog should be at least as effective in treating cancers as fatty acid synthesis inhibitors, if not more so.

For the next experiment, the target named is T3, acetyl-CoA carboxylase (Mus musculus, UniProt Q5SWU9).
T3 construct: endogenous in cells; host or cells: murine 3T3-L1 pre-adipocytes (cytosolic extract)
Description: Acetyl-CoA carboxylase activity in lysates of treated pre-adipocytes (HPLC fixed-time assay). Type of experiment: cell-based, murine. The following applies: pre-adipocytes treated with 10 μM for four hours; DMSO control 1.40 nmol/min-mg. On the procedure: as §2
The activity of acetyl-CoA carboxylase from 3T3-L1 cell lysates was determined in a fixed-time assay using HPLC. HPLC is not normally used in this field, because cell lysates are mixtures of such a large number of different components; it would be more conventional to use an assay employing radioactivity. […]
as §3
We also examined whether there was a concomitant decrease in the activity of acetyl-CoA carboxylase. […] Acetyl-CoA carboxylase activity was measured by analytical reverse phase HPLC. […]

`CC(C)(COP(=O)(O)OP(=O)(O)OCC1OC(n2cnc3c(N)ncnc32)C(O)C1OP(=O)(O)O)C(O)C(=O)NCCC(=O)NCCSCC(=O)N1C(=O)NC2C(CCCCC(=O)OCc3ccccc3)SCC21` (stereo not drawn) [Compound 1]: in experiment [1], the affinity corresponds to a Ki of 23 ± 2 µM and the “binding energy of the inhibitor relative to the sum of binding energies of the two substrates (times less)” value is “about 1.3”. Moreover, the “factor by which the product of the substrate dissociation constants exceeds the inhibition constant” value in experiment [1] (Km of malonyl-CoA and biocytin used as dissociation constants) was “about 35”. The “inhibition pattern with malonyl-CoA as the variable substrate” value in experiment [1] (biocytin held constant at 6.0 mM) was “competitive inhibition”. In addition, the “inhibition pattern with biocytin as the variable substrate” value in experiment [1] (malonyl-CoA held constant at 0.1 mM) is given as “noncompetitive inhibition”. Besides, the “effect on acetyl-CoA carboxylase activity in cell-free extracts” value in experiment [2] is on record as “inhibited murine acetyl-CoA carboxylase activity”. The “inhibition of coupling enzyme malate dehydrogenase” value in the experiment on malate dehydrogenase is “No decrease in activity”. Also, the “inhibition of coupling enzyme citrate synthase” value in the experiment on citrate synthase is “No decrease in activity”.
As to `N[C@@H](CCCCNC(=O)CCCC[C@@H]1SC[C@@H]2NC(=O)N[C@@H]21)C(=O)O` [biocytin], in experiment [1] (substrate of carboxyltransferase, reverse direction), the Km worked out at 8 mM.
With “phenylmethyl 5-(6,8-diaza-6-(2-X-acetyl)-7-oxo-3-thiabicyclo[3.3.0]oct-2-yl)pentanoate [Compound 2]”, in experiment [2], the “effect on acetyl-CoA carboxylase activity in cell-free extracts” value was “had no effect”. Moreover, in the experiment on 3T3-L1 pre-adipocytes (0, 1, 2, 4, 8 or 17 μM, repeated every 24 hours, one week), the “adipocyte differentiation of 3T3-L1 cells” value is “inhibited adipocyte differentiation of 3T3-L1 cells in a dose-dependent manner”. In the experiment with 3T3-L1 pre-adipocytes (17 μM or 8 μM), the “induction of PPARγ expression (Western blotting)” value is “blocked the induction of PPARγ expression” and the “lipid accumulation (Oil Red O staining)” value is given as “blocked lipid accumulation”. In addition, the “levels of STAT3” value with 3T3-L1 pre-adipocytes (Western blot) was “unaffected”. The “expression of STATs 1 and 5A” value in the experiment on 3T3-L1 pre-adipocytes (Western blot, during induced differentiation) is “inhibited in a dose-dependent manner”. The “reversibility of inhibition of differentiation” value in the experiment with 3T3-L1 pre-adipocytes (compound not re-added at 24 hour intervals after initial treatment) is “reversible”. Also, in experiment [3], the “cellular proliferation of MCF7” value is reported as “inhibited cellular proliferation in that cell line in a dose-dependent manner”. Moreover, the “activity of acetyl-CoA carboxylase from treated cells” value at acetyl-CoA carboxylase was 0.30 nmol malonyl-CoA/min-mg.
